Test results as given in US9840513B2 (AbbVie S.à.r.l., priority 2015, dated 2017).

How the values were obtained:
[1] = target: T1, F508delCFTR in primary hBE cells with F508del/F508del CFTR mutation (Homo sapiens, UniProt P13569, DEL508-508); assay: Transepithelial Clamp Circuit on Human Bronchial Epithelial Cells Conductance Assay (hBE-TECC); type: cell-based; settings: for EC50: primary hBE cells F508del/F508del, 18-24 hours at 37° C., equivalent short circuit current, 6 concentrations; for Maximum % activity (%): relative to positive control (3 μM) coupled with control potentiator
T1 construct: cells isolated from CF patients with the homozygous mutation; endogenous in cells; host or cells: primary human bronchial epithelial (hBE) cells from F508del/F508del CF patients
Procedure, shortened: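 Primary F508del/F508del hBE cells grown 35 days at air-liquid interface, treated basolaterally with correctors 18-24 h at 37° C. Ieq (Vt/Rt) at 36.5° C, pH 7.4, after benzamil, forskolin 10 μM, control potentiator, bumetanide; 6 concentrations normalized to DMSO and 3 μM positive-control corrector, EC50 by 4-parameter fit.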

[2] = target: T2, F508delCFTR cell surface expression in CFBE41o-F508delCFTR-HRP cells (Homo sapiens, UniProt P13569, DEL508-508); assay: Cell Surface Expression-Horse Radish Peroxidase (CSE-HRP) Assay; type: cell-based; settings: for EC50: CFBE41o-F508delCFTR-HRP cells, 18-24 hours at 33° C., 8-point curve, highest concentration 20 μM; for Maximum % activity (%): maximum at any tested concentration, normalized to on-plate positive control (3 μM)
T2 construct: fused on or other part: Horseradish peroxidase (HRP) reporter inserted in the fourth exofacial (extracellular) loop of CFTR; expression is doxycycline-inducible
Procedure, shortened: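 CFBE41o- cells with HRP-tagged F508delCFTR, expression induced by 0.5 μg/mL doxycycline for 72 h at 37 °C, then compound for 18-24 h at 33 °C (8-point, 3-fold, top 20 μM). Surface HRP measured by luminol luminescence; % activity normalised to 3 μM positive-control corrector; EC50 from variable-slope sigmoidal fit, three replicate plates.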

T1 sequence (P13569 with tags, fused parts or gaps DEL508-508): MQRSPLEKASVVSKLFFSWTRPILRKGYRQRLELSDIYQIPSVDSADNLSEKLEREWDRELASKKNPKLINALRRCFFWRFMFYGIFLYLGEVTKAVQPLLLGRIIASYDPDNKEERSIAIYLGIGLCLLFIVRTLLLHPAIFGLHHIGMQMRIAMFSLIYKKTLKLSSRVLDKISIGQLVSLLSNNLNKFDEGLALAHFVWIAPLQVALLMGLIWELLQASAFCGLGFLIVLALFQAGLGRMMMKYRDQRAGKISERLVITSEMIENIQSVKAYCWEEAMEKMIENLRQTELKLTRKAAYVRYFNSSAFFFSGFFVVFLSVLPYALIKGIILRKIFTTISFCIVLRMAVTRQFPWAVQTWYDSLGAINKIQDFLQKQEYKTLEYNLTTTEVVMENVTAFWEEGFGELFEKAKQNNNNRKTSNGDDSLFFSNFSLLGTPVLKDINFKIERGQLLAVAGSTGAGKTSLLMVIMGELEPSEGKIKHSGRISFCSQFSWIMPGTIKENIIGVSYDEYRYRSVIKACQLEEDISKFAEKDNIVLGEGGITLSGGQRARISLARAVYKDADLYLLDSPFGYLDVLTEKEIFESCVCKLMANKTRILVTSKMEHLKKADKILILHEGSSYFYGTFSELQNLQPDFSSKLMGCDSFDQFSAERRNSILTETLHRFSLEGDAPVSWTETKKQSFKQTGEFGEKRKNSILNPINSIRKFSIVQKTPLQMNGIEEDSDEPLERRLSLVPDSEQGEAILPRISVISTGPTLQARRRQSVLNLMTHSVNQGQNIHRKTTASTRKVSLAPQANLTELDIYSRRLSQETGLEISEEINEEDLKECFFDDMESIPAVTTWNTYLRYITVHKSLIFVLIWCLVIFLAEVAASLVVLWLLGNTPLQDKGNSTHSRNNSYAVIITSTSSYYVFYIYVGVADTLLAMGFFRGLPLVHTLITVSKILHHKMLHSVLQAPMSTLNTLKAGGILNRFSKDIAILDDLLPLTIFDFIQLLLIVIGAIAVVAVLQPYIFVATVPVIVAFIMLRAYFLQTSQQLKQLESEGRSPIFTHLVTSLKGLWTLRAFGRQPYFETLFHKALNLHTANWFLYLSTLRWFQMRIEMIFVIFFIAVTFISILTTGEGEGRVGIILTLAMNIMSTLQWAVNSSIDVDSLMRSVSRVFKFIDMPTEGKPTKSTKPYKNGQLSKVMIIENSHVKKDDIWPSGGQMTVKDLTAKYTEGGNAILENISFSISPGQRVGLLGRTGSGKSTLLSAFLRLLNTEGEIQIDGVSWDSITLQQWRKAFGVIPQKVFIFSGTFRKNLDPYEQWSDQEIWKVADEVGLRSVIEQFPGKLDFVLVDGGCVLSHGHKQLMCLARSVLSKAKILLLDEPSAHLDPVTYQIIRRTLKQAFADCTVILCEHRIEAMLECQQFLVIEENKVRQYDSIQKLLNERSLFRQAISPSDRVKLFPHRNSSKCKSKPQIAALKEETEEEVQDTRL
T2 sequence (P13569 with tags, fused parts or gaps DEL508-508 limits assumed): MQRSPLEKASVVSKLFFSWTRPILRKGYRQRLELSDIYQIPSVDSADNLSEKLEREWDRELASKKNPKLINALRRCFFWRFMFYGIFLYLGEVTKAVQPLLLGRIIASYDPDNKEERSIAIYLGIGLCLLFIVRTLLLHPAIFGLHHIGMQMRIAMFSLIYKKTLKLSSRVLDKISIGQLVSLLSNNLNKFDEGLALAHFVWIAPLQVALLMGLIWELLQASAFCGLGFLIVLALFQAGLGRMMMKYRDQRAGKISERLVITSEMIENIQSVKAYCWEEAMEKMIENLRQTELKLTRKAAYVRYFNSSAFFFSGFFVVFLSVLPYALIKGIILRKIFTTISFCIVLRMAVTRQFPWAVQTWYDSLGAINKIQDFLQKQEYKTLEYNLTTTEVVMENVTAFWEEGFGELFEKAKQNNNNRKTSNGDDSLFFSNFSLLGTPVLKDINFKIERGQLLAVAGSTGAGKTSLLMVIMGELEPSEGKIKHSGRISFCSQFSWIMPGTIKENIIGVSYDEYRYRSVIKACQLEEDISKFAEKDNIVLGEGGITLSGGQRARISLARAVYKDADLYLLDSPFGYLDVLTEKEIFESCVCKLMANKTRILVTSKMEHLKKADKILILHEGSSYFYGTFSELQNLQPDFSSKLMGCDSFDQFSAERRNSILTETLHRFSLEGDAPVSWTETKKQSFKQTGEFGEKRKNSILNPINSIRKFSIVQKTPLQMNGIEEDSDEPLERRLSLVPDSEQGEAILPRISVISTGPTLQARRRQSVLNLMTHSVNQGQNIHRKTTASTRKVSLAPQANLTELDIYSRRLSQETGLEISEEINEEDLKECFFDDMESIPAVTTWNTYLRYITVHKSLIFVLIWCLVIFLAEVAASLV
T2 sequence (P13569 919-1480 limits assumed, stated change not applied): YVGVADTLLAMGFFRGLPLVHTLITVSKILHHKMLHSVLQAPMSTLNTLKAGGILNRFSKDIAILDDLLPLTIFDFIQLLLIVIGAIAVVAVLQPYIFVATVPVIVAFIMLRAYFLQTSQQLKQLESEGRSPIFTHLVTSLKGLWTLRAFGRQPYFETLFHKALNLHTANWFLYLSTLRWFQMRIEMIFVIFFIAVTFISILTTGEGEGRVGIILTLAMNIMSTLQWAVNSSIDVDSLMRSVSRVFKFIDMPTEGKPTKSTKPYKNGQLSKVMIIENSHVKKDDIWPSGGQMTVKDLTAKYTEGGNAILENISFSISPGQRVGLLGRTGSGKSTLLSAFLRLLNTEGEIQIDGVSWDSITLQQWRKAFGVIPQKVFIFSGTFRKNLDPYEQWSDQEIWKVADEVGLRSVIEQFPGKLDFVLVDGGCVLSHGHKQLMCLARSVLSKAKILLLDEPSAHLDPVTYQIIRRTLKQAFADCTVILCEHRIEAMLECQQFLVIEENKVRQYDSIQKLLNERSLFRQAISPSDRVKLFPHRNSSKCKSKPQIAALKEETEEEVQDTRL

## COc1ccc2c(c1)O[C@@H](c1ccc(N3C[C@@H](O)[C@H](O)C3)nn1)C[C@H]2NC(=O)[C@@]1(C)COc2cc3c(cc21)OC(F)(F)O3 [Example 251, (7R)—N-[(2R,4R)-2-{6-[(3R,4R)-3,4-dihydroxypyrrolidin-1-yl]pyridazin-3-yl}-7-methoxy-3,4-dihydro-2H-1-benzopyran-4-yl]-2,2-difluoro-7-methyl-6,7-dihydro-2H-furo[2,3-f][1,3]benzodioxole-7-carboxamide]
[1]
  EC50: 5 nM
  Maximum % activity (%): 86%
[2]
  EC50: 30 nM
  Maximum % activity (%): 128%

## COc1ccc2c(c1)OC(c1ccc(OC[C@@H](O)CO)nn1)C[C@H]2NC(=O)[C@@]1(C)COc2cc3c(cc21)OC(F)(F)O3 (stereo partly drawn) [Example 252, (7R)—N-[(4R)-2-{6-[(2S)-2,3-dihydroxypropoxy]pyridazin-3-yl}-7-methoxy-3,4-dihydro-2H-1-benzopyran-4-yl]-2,2-difluoro-7-methyl-6,7-dihydro-2H-furo[2,3-f][1,3]benzodioxole-7-carboxamide]
[1]
  EC50: 32 nM
  Maximum % activity (%): 106%
[2]
  EC50: 90 nM
  Maximum % activity (%): 110%

## C[C@]1(C(=O)N[C@@H]2C[C@H]([C@H]3CC[C@H](C(=O)N4C[C@H](O)[C@@H](O)C4)CC3)Oc3cc(OC(F)(F)F)ccc32)COc2cc3c(cc21)OC(F)(F)O3 [Example 256, (7R)—N-[(2R,4R)-2-{trans-4-[(3S,4S)-3,4-dihydroxypyrrolidine-1-carbonyl]cyclohexyl}-7-(trifluoromethoxy)-3,4-dihydro-2H-1-benzopyran-4-yl]-2,2-difluoro-7-methyl-6,7-dihydro-2H-furo[2,3-f][1,3]benzodioxole-7-carboxamide]
[1]
  EC50: 10 nM
  Maximum % activity (%): 106%
[2]
  EC50: 60 nM
  Maximum % activity (%): 168%

## C[C@]1(C(=O)N[C@@H]2C[C@H]([C@H]3CC[C@H](C(=O)NCC(O)CO)CC3)Oc3cc(OC(F)(F)F)ccc32)COc2cc3c(cc21)OC(F)(F)O3 (stereo partly drawn) [Example 260, (7R)—N-[(2R,4R)-2-{trans-4-[(2,3-dihydroxypropyl)carbamoyl]cyclohexyl}-7-(trifluoromethoxy)-3,4-dihydro-2H-1-benzopyran-4-yl]-2,2-difluoro-7-methyl-6,7-dihydro-2H-furo[2,3-f][1,3]benzodioxole-7-carboxamide]
[1]
  EC50: 69 nM
  Maximum % activity (%): 129%
[2]
  EC50: 130 nM
  Maximum % activity (%): 174%

## C[C@]1(C(=O)N[C@@H]2C[C@H]([C@H]3CC[C@H](C(=O)NCCO)CC3)Oc3cc(OC(F)(F)F)ccc32)COc2cc3c(cc21)OC(F)(F)O3 [Example 261, (7R)-2,2-difluoro-N-[(2R,4R)-2-{trans-4-[(2-hydroxyethyl)carbamoyl]cyclohexyl}-7-(trifluoromethoxy)-3,4-dihydro-2H-1-benzopyran-4-yl]-7-methyl-6,7-dihydro-2H-furo[2,3-f][1,3]benzodioxole-7-carboxamide]
[1]
  EC50: 21 nM
  Maximum % activity (%): 104%
[2]
  EC50: 60 nM
  Maximum % activity (%): 157%

## CCCN(CCO)C(=O)[C@H]1CC[C@H]([C@H]2C[C@@H](NC(=O)[C@@]3(C)COc4cc5c(cc43)OC(F)(F)O5)c3ccc(OC(F)(F)F)cc3O2)CC1 [Example 263, (7R)-2,2-difluoro-N-[(2R,4R)-2-{trans-4-[(2-hydroxyethyl)(propyl)carbamoyl]cyclohexyl}-7-(trifluoromethoxy)-3,4-dihydro-2H-1-benzopyran-4-yl]-7-methyl-6,7-dihydro-2H-furo[2,3-f][1,3]benzodioxole-7-carboxamide]
[1]
  EC50: 4 nM
  Maximum % activity (%): 118%
[2]
  EC50: 70 nM
  Maximum % activity (%): 167%

## COc1ccc2c(c1)O[C@@H]([C@H]1CC[C@H](C(=O)N3C[C@H](O)[C@@H](O)C3)CC1)C[C@H]2NC(=O)[C@@]1(C)COc2cc3c(cc21)OC(F)(F)O3 [Example 281, (7R)—N-[(2R,4R)-2-{trans-4-[(3S,4S)-3,4-dihydroxypyrrolidine-1-carbonyl]cyclohexyl}-7-methoxy-3,4-dihydro-2H-1-benzopyran-4-yl]-2,2-difluoro-7-methyl-6,7-dihydro-2H-furo[2,3-f][1,3]benzodioxole-7-carboxamide]
[1]
  EC50: 117 nM
  Maximum % activity (%): 134%
[2]
  EC50: 470 nM
  Maximum % activity (%): 154%

## C[C@]1(C(=O)N[C@@H]2C[C@H](C3(C(=O)N4C[C@H](O)[C@@H](O)C4)CC3)Oc3cc(OC(F)(F)F)ccc32)COc2cc3c(cc21)OC(F)(F)O3 [Example 282, (7R)—N-[(2R,4R)-2-{1-[(3S,4S)-3,4-dihydroxypyrrolidine-1-carbonyl]cyclopropyl}-7-(trifluoromethoxy)-3,4-dihydro-2H-1-benzopyran-4-yl]-2,2-difluoro-7-methyl-6,7-dihydro-2H-furo[2,3-f][1,3]benzodioxole-7-carboxamide]
[1]
  EC50: 282 nM
  Maximum % activity (%): 100%
[2]
  EC50: 1860 nM
  Maximum % activity (%): 135%
